Results published in patent US20220125903A1, “METHODS FOR IMPROVING THE EFFICACY OF A SURVIVIN THERAPEUTIC IN THE TREATMENT OF TUMORS” (IMMUNOVACCINE TECHNOLOGIES INC., priority 2018, published 2022).
Marks after values point to notes of the source that are not given here.

Tests used:
recurrent ovarian cancer = experiment: Phase 1b study: DPX-Survivac with low dose cyclophosphamide and epacadostat, tumor response by modified RECIST 1.1; format: in vivo, human; details: for CR (complete response), number of subjects / DCR (CR + PR + SD), disease control rate / DCR (CR + PR + SD), number of subjects / ORR (overall response rate), % of subjects / ORR (overall response rate), number of subjects / PR (partial response), % of subjects / PR (partial response), number of subjects / Partial response, % of subjects / Partial response, subjects/N / Progressive disease, % of subjects / Progressive disease, subjects/N / Stable disease, % of subjects / Stable disease, subjects/N / Tumor regressions, % of subjects / Tumor regressions, subjects/N / PD (progressive disease), % of subjects / PD (progressive disease), subjects/N / PR (partial response), subjects/N: with DPX-Survivac + low dose CPA
survivin = experiment: Cell mediated immunity: survivin-specific T cell response by ELISpot (Phase 1b); format: in vivo, human; details: with DPX-Survivac + low dose CPA
Protocol: Cell Mediated Immunity was determined by immunogenicity analysis and describe as the percentage of subjects with a positive immune response to one or more epitopes in the T cell activation therapeutic as well as changes in immune cell infiltration to the tumor. For ELISpot, antigen-specific response rate greater than Mean+2SD (typically>64 SFU/106 PBMC) obtained from pre-treatment and/or unstimulated/background cells was considered a positive response. Further, based on the magnitude of ELISpot response following treatment, subjects were classified as low (>64 to <512 SFU/106 PBMC) or high (>512 SFU/106 PBMC) immune responders to treatment or described as having a high and sustained immune response (3 separate time points >512 SFU/106 PBMC).

[1] = all epacadostat doses (N = 15), total target lesion size < 5 cm
[2] = all epacadostat doses (N = 38), total target lesion size ≥ 5 cm
[3] = epacadostat 100 mg (N = 5), sum of target lesion at baseline <5 cm
[4] = epacadostat 100 mg (N = 14), all subjects
[5] = epacadostat 100 mg BID (N = 5), total target lesion size < 5 cm
[6] = epacadostat 100 mg BID (N = 9), total target lesion size ≥ 5 cm
[7] = epacadostat 100 mg and 300 mg, Total (N = 53)
[8] = epacadostat 300 mg (N = 10), sum of target lesion at baseline <5 cm, partially monitored data
[9] = epacadostat 300 mg (N = 39), all subjects, partially monitored data
[10] = epacadostat 300 mg BID (N = 10), total target lesion size < 5 cm
[11] = epacadostat 300 mg BID (N = 29), total target lesion size ≥ 5 cm
[12] = epacadostat Total (N = 15), sum of target lesion at baseline <5 cm

SMILES: NS(=O)(=O)NCCNc1nonc1/C(=N\c1ccc(F)c(Br)c1)NO [Epacadostat]
- dose related activity of epacadostat (recurrent ovarian cancer; preliminary analysis, 100 mg vs 300 mg combined with DPX-Survivac and low dose CPA): absence of dose related activity
- CR (complete response), number of subjects (recurrent ovarian cancer; [1]): 0
- DCR (CR + PR + SD), disease control rate (recurrent ovarian cancer; [1]): (66.7%)
- DCR (CR + PR + SD), number of subjects (recurrent ovarian cancer; [1]): 10
- ORR (overall response rate), % of subjects (recurrent ovarian cancer; [1]): (26.7%)
- ORR (overall response rate), number of subjects (recurrent ovarian cancer; [1]): 4
- PR (partial response), % of subjects (recurrent ovarian cancer; [1]): (26.7%)
- PR (partial response), number of subjects (recurrent ovarian cancer; [1]): 4
- CR (complete response), number of subjects (recurrent ovarian cancer; [2]): 0
- DCR (CR + PR + SD), disease control rate (recurrent ovarian cancer; [2]): (39.5%)
- DCR (CR + PR + SD), number of subjects (recurrent ovarian cancer; [2]): 15
- ORR (overall response rate), % of subjects (recurrent ovarian cancer; [2]): (2.6%)
- ORR (overall response rate), number of subjects (recurrent ovarian cancer; [2]): 1
- PR (partial response), % of subjects (recurrent ovarian cancer; [2]): (2.6%)
- PR (partial response), number of subjects (recurrent ovarian cancer; [2]): 1
- Partial response, % of subjects (recurrent ovarian cancer; [3]): (60.0%)
- Partial response, subjects/N (recurrent ovarian cancer; [3]): 3/5
- Progressive disease, % of subjects (recurrent ovarian cancer; [3]): (0%)
- Progressive disease, subjects/N (recurrent ovarian cancer; [3]): 0/5
- Stable disease, % of subjects (recurrent ovarian cancer; [3]): (40.0%)
- Stable disease, subjects/N (recurrent ovarian cancer; [3]): 2/5
- Tumor regressions, % of subjects (recurrent ovarian cancer; [3]): (100%)
- Tumor regressions, subjects/N (recurrent ovarian cancer; [3]): 5/5
- PD (progressive disease), % of subjects (recurrent ovarian cancer; [4]): (35.7%)
- PD (progressive disease), subjects/N (recurrent ovarian cancer; [4]): 5/14
- PR (partial response), % of subjects (recurrent ovarian cancer; [4]): (21.4%)
- PR (partial response), subjects/N (recurrent ovarian cancer; [4]): 3/14
- Tumor regressions, % of subjects (recurrent ovarian cancer; [4]): (35.7%)
- Tumor regressions, subjects/N (recurrent ovarian cancer; [4]): 5/14
- CR (complete response), number of subjects (recurrent ovarian cancer; [5]): 0
- DCR (CR + PR + SD), disease control rate (recurrent ovarian cancer; [5]): (100%)
- DCR (CR + PR + SD), number of subjects (recurrent ovarian cancer; [5]): 5
- ORR (overall response rate), % of subjects (recurrent ovarian cancer; [5]): (60%)
- ORR (overall response rate), number of subjects (recurrent ovarian cancer; [5]): 3
- PR (partial response), % of subjects (recurrent ovarian cancer; [5]): (60.0%)
- PR (partial response), number of subjects (recurrent ovarian cancer; [5]): 3
- CR (complete response), number of subjects (recurrent ovarian cancer; [6]): 0
- DCR (CR + PR + SD), disease control rate (recurrent ovarian cancer; [6]): (33.3%)
- DCR (CR + PR + SD), number of subjects (recurrent ovarian cancer; [6]): 3
- ORR (overall response rate), number of subjects (recurrent ovarian cancer; [6]): 0
- PR (partial response), number of subjects (recurrent ovarian cancer; [6]): 0
- PD (progressive disease), % of subjects (recurrent ovarian cancer; [7]): (34.0%)
- PD (progressive disease), subjects/N (recurrent ovarian cancer; [7]): 18/53
- PR (partial response), % of subjects (recurrent ovarian cancer; [7]): (9.4%)
- PR (partial response), subjects/N (recurrent ovarian cancer; [7]): 5/53
- Tumor regressions, % of subjects (recurrent ovarian cancer; [7]): (20.1%)
- Tumor regressions, subjects/N (recurrent ovarian cancer; [7]): 11/53
- Partial response, % of subjects (recurrent ovarian cancer; [8]): (10.0%)
- Partial response, subjects/N (recurrent ovarian cancer; [8]): 1/10
- Progressive disease, % of subjects (recurrent ovarian cancer; [8]): (50.0%)
- Progressive disease, subjects/N (recurrent ovarian cancer; [8]): 5/10
- Stable disease, % of subjects (recurrent ovarian cancer; [8]): (40.0%)
- Stable disease, subjects/N (recurrent ovarian cancer; [8]): 4/10
- Tumor regressions, % of subjects (recurrent ovarian cancer; [8]): (30.0%)
- Tumor regressions, subjects/N (recurrent ovarian cancer; [8]): 3/10
- PD (progressive disease), % of subjects (recurrent ovarian cancer; [9]): (33.3%)
- PD (progressive disease), subjects/N (recurrent ovarian cancer; [9]): 13/39
- PR (partial response), % of subjects (recurrent ovarian cancer; [9]): (5.1%)
- PR (partial response), subjects/N (recurrent ovarian cancer; [9]): 2/39
- Tumor regressions, % of subjects (recurrent ovarian cancer; [9]): (15.4%)
- Tumor regressions, subjects/N (recurrent ovarian cancer; [9]): 6/39
- CR (complete response), number of subjects (recurrent ovarian cancer; [10]): 0
- DCR (CR + PR + SD), disease control rate (recurrent ovarian cancer; [10]): (50.0%)
- DCR (CR + PR + SD), number of subjects (recurrent ovarian cancer; [10]): 5
- ORR (overall response rate), % of subjects (recurrent ovarian cancer; [10]): (10.0%)
- ORR (overall response rate), number of subjects (recurrent ovarian cancer; [10]): 1
- PR (partial response), % of subjects (recurrent ovarian cancer; [10]): (10.0%)
- PR (partial response), number of subjects (recurrent ovarian cancer; [10]): 1
- CR (complete response), number of subjects (recurrent ovarian cancer; [11]): 0
- DCR (CR + PR + SD), disease control rate (recurrent ovarian cancer; [11]): (41.4%)
- DCR (CR + PR + SD), number of subjects (recurrent ovarian cancer; [11]): 12
- ORR (overall response rate), % of subjects (recurrent ovarian cancer; [11]): (3.4%)
- ORR (overall response rate), number of subjects (recurrent ovarian cancer; [11]): 1
- PR (partial response), % of subjects (recurrent ovarian cancer; [11]): (3.4%)
- PR (partial response), number of subjects (recurrent ovarian cancer; [11]): 1
- Partial response, % of subjects (recurrent ovarian cancer; [12]): (26.7%)
- Partial response, subjects/N (recurrent ovarian cancer; [12]): 4/15
- Progressive disease, % of subjects (recurrent ovarian cancer; [12]): (33.3%)
- Progressive disease, subjects/N (recurrent ovarian cancer; [12]): 5/15
- Stable disease, % of subjects (recurrent ovarian cancer; [12]): (33.3%)
- Stable disease, subjects/N (recurrent ovarian cancer; [12]): 5/15
- Tumor regressions, % of subjects (recurrent ovarian cancer; [12]): (53.3%)
- Tumor regressions, subjects/N (recurrent ovarian cancer; [12]): 8/15
- Positive T cell response (survivin), % of subjects (survivin; [3]): (100%)
- Positive T cell response (survivin), subjects/evaluable (survivin; [3]): 4/4
- Positive T cell response (survivin), % of subjects (survivin; [4]): (100%)
- Positive T cell response (survivin), subjects/evaluable (survivin; [4]): 11/11
- Positive T cell response (survivin), % of subjects (survivin; [7]): (81.5%)
- Positive T cell response (survivin), subjects/evaluable (survivin; [7]): 22/27
- Positive T cell response (survivin), % of subjects (survivin; [8]): (25%)^a
- Positive T cell response (survivin), subjects/evaluable (survivin; [8]): 1/4
- Positive T cell response (survivin), % of subjects (survivin; [9]): (56.3%)^b
- Positive T cell response (survivin), subjects/evaluable (survivin; [9]): 9/16
